# Structures can show the parent of a compound that is named as a salt. Where two headings read alike, the source gives them in different places.
# Key:
# EAE model = conditions: 10 mg/kg starting at the time of immunization; cited from earlier work
# [1] = test system: myelin in spinal cord of EAE mice; test: Luxol fast blue staining of spinal cord in EAE; assay type: in vivo, female C57BL/6 mice; conditions: chronic phase
# [2] = molecular target: T1, kappa opioid receptor (KOR) (Mus musculus, UniProt P33534); test: EAE with KOR antagonist norBNI; assay type: in vivo, female C57BL/6 mice
# T1 construct: from tissue; host or cells: whole animal: female C57BL/6 mice (EAE model)
# [3] = test system: cuprizone demyelination disease model of MS; test: von Frey mechanical withdrawal threshold in cuprizone model; assay type: in vivo, female C57BL/6 mice; conditions: 0.1 mg/kg/i.p. daily from day 28 or 35
# [4] = test system: Histamine induced scratch; conditions: PO; Togashi et al. (2002); cited from earlier work
# [5] = test system: cuprizone model of demyelination; test: Rotarod assay in cuprizone model of demyelination; assay type: in vivo, female C57BL/6 mice; conditions: 0.1 mg/kg i.p. daily from week 4
# [6] = test system: leucocyte infiltration into the spinal cord; test: H&E staining of spinal cord for leucocyte infiltration in EAE; assay type: in vivo, female C57BL/6 mice; conditions: 0.01 mg/kg i.p. daily from disease onset; chronic phase
# [7] = test system: activated GFAP+ astrocytes in the spinal cord; test: GFAP immunohistochemistry of spinal cord in EAE; assay type: in vivo, female C57BL/6 mice; conditions: 0.01 mg/kg i.p. daily from day 17; day 45
# [8] = test system: Substance P induced scratch; conditions: cited from earlier work
# [9] = test system: lymphocyte populations in the spleen; test: Splenocyte flow cytometry in chronic phase of EAE; assay type: in vivo, female C57BL/6 mice; conditions: 0.01 mg/kg i.p. daily from disease onset; 27 days post treatment initiation
# [10] = test system: infiltrating immune cells (CD45high) in the brain; test: Immune cell infiltration into the brain in EAE (flow cytometry); assay type: in vivo, female C57BL/6 mice
# itch = conditions: in vivo; cited from earlier work
# [11] = test system: myelin in spinal cord of EAE mice; test: TEM of spinal cord sections in EAE; assay type: in vivo, female C57BL/6 mice; conditions: 0.03 mg/kg i.p. daily from day 17; day 45
# Morphine induced scratch = conditions: SC; Winfuran assessment report EMA/CHMP/138212/2014; cited from earlier work
# [12] = test system: myelin in corpus callosum of cuprizone-treated mice; test: TEM of corpus callosum in cuprizone model (g-ratio, myelinated axons, myelin area); assay type: in vivo, female C57BL/6 mice
# EAE-induced weight loss = assay type: in vivo, female C57BL/6 mice; conditions: 0.3, 0.1 or 0.03 mg/kg i.p. daily from day 17
# [13] = Weight change in cuprizone model of demyelination; assay type: in vivo, female C57BL/6 mice
# [14] = 0.1 mg/kg/i.p. daily from day 28, day 70
# [15] = nalfurafine 0.1 mg/kg/i.p. or U-50488 1.6 mg/kg/i.p. daily from day 28, day 70
# [16] = norBNI 10 mg/kg i.p. weekly with nalfurafine 0.01 mg/kg i.p. daily
# T1 sequence (P33534 whole entry): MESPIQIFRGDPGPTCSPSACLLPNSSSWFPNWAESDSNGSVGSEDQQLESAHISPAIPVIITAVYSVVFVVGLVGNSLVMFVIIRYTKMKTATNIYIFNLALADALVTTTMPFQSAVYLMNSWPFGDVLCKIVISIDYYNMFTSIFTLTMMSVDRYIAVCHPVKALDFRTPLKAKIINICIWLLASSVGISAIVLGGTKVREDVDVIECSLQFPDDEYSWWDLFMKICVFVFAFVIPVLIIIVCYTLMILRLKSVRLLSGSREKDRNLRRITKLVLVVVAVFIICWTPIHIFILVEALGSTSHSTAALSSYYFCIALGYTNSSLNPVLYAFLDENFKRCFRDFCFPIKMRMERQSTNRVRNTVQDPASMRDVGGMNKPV
smiles,measurement,setting,value
CN1CCC[C@@H]1CCO[C@](C)(c1ccccc1)c1ccc(Cl)cc1 [clemastine fumarate],chronic disability in the EAE model,EAE model,has been shown to reduce chronic disability in the EAE model
"CN(C(=O)/C=C/c1ccoc1)[C@@H]1CC[C@@]2(O)[C@H]3Cc4ccc(O)c5c4[C@@]2(CCN3CC2CC2)[C@H]1O5 [nalfurafine, (E)-N-[(4R,4aS,7R,7aR,12bS)-3-(cyclopropylmethyl)-4a,9-dihydroxy-1,2,4,5,6,7,7a,13-octahydro-4,12-methanobenzofuro[3,2-e]isoquinoline-7-yl]-3-(furan-3-yl)-N-methylprop-2-enamide]",lesion load and myelin density in ventral horn (luxol fast blue),[1]; 0.01 mg/kg i.p. daily from disease onset,reduces this lesion load and demyelination
same,% demyelination of spinal cord (luxol fast blue),[1]; 0.03 or 0.01 mg/kg i.p. daily from disease onset,significant reduction in the percentage of demyelination
same,disease reduction in the presence of norBNI,[2]; nalfurafine 0.01 mg/kg i.p. daily with norBNI 10 mg/kg i.p. weekly,effective at reducing disease independently of the KOR
same,mechanical threshold scores vs vehicle,[3],improved mechanical threshold scores compared to vehicle treated mice
same,"mechanical withdrawal threshold, pre vs post treatment",[3],reduced to baseline levels
same,ED50,[4],7.3 µg/kg
same,rotarod performance at week 9 relative to week 5,[5],Cuprizone-induced disability was reversed
same,"leucocyte infiltration score (0-3), H&E",[6],surprising reduction of infiltrating leucocytes
same,number of activated GFAP+ astrocytes per section,[7],significantly reduces the number of activated astrocytes
same,Complete Inhibition,"[8]; IV, Winfuran assessment report EMA/CHMP/138212/2014",7.5-10^ μg/kg
same,Inhibition printed in brackets beside the dose,"[8]; PO, 100 μg/kg, Winfuran assessment report EMA/CHMP/138212/2014",66%
same,Complete Inhibition,"[8]; PO, Togashi et al. (2002)",100 µg/kg
same,Complete Inhibition,"[8]; PO, Winfuran assessment report EMA/CHMP/138212/2014",100 µg/kg
same,Complete Inhibition,"[8]; SC, Winfuran assessment report EMA/CHMP/138212/2014",10 µg/kg
same,Teff:cm ratio (effector to central memory CD4 T cells),[9],reduced ratio in the nalfurafine-treated compared to the vehicle-treated mice
same,overall number of CD4 T cells in spleen,[9],the same between nalfurafine and vehicle treated mice
same,proportion of major lymphocyte populations in spleen (% live leukocytes),[9],do not alter the proportion of the major lymphocyte populations in the spleen
same,number of infiltrating immune cells in brain (ratio to microglia),"[10]; 0.03 mg/kg i.p. daily from day 17, day 45",significantly reduced the number of infiltrating immune cells
same,number of infiltrating immune cells in brain (ratio to microglia),"[10]; 0.03 and 0.01 mg/kg i.p. daily from disease onset, chronic phase (>24 days)",significantly reduced the number of infiltrating immune cells
same,effective dose in humans for itch,itch,2.5 μg/body/day
same,myelination of nerve axons in spinal cord (TEM),[11],nerve axons appear healthy and well-myelinated
same,Complete Inhibition,Morphine induced scratch,5 to 10 µg/kg
same,myelin in corpus callosum (TEM),"[12]; 0.1 mg/kg i.p. daily from week 4, day 65 (Example 9)","more myelin was detected, and the structure was less disorganized"
same,area of myelination,[12]; [14],percentage increase in area of myelination
same,number of myelinated axons,[12]; [14],percentage increase in the number of myelinated axons
same,"axonal-myelin ultrastructure, repair",[12]; [15],surprisingly similar to that of the naïve (normal) tissue
same,mean g-ratio,[12]; [15],0.75±0.15
same,% change in body weight,EAE-induced weight loss,mice recover from EAE-induced weight loss
same,% weight change,"[13]; 0.3% cuprizone 5 weeks, 0.1 mg/kg i.p. daily from week 4, 65 days (Example 7)",reversed significantly more effectively by administration of nalfurafine than vehicle alone
same,% weight change in recovery phase,"[13]; 0.3% cuprizone 35 days, nalfurafine 0.1 mg/kg or U-50488 1.6 mg/kg i.p. daily from day 28 (Example 28)",enhances recovery of the lost weight faster
Oc1ccc2c3c1O[C@H]1c4[nH]c5c(c4C[C@@]4(O)[C@@H](C2)N(CC2CC2)CC[C@]314)C[C@@]1(O)[C@H]2Cc3ccc(O)c4c3[C@@]1(CCN2CC1CC1)[C@H]5O4 [norBNI],"disease score, full recovery (score <0.5)",[2]; [16],abolishes the ability of nalfurafine to enable full recovery from paralysis
same,percentage recovered and number of days in recovery,[2]; [16],abolishes the ability of nalfurafine to enable and sustain recovery from paralysis

# Reference: patent publication US12318380B2, “Treatment of demyelinating diseases” (priority 2018, dated 2025)
